According to ChEMBL document CHEMBL1201862, “PubChem BioAssay data set” (2004):
Activity calls are given as the source filed them.

What was measured:
[1] = biological target: NAD-dependent protein deacylase sirtuin-5, mitochondrial (Homo sapiens, UniProt Q9NXA8); assay: SIRT5 deacylase inhibitors, dose response, biochemical, fluorescence imaging, cherry-pick, set 6 (AID 720597)
Phospholipase D2 [2] = biological target: T1, Phospholipase D2 (Homo sapiens, UniProt O14939); assay: PLD2 Cellular Concentration Response Study.; assay type: functional
Phospholipase D2 [3] = biological target: T1, Phospholipase D2; assay: Discovery of PLD2 inhibitors using the Purified Enzyme Concentration Response Assay.; assay type: functional
Phospholipase D1 = Phospholipase D1 (Homo sapiens, UniProt Q13393); assay: PLD1 Cellular Concentration Response Study.; assay type: functional
Protein Tat = Protein Tat (Human immunodeficiency virus type 1 group M subtype B (isolate HXB2)(HIV-1), UniProt P04608); assay type: functional;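 note: tat binding to TAR RNA read out by fluorescence polarization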
[4] = HeLa 2N DNA content increase, dose response, cell-based, IC50 (AID 1117349); assay type: functional
[5] = Concentration-dependent survival of SW480 colon cancer line, luminescence detection with CellTiter-Glo, half-maximal inhibitory concentration (AID 1117338); assay type: functional
[6] = RKO cell viability reduction, dose response, CellTiter-Glo luminescence (AID 1117322); assay type: functional
[7] = cytotoxicity toward HCT116 cells – cell-based, CellTiter-Glo luminescence, IC50, dose response (AID 1117332); assay type: functional; conditions: HCT-116
[8] = SNU-C1 cell viability reduction, dose response, CellTiter-Glo luminescence (AID 1117323); assay type: functional, cell-based
[9] = cytotoxicity toward Colo320 cells – cell-based, CellTiter-Glo luminescence, IC50, dose response (AID 1117334); assay type: functional; conditions: COLO 320
[10] = HeLa 4N DNA content increase, dose response, cell-based, IC50 (AID 1117351); assay type: functional
[11] = cytotoxicity toward HT-29 cells – cell-based, CellTiter-Glo luminescence, IC50, dose response (AID 1117330); assay type: functional
[12] = CellTiter-Glo luminescent dose response of DLD-1 viability loss (AID 1117352); assay type: functional
[13] = HCT116 cell viability decrease, GSK3B pretreatment – CellTiter-Glo, IC50, dose response (AID 1117339); assay type: functional; conditions: HCT-116
[14] = P. falciparum 3D7-ScDHODH growth inhibitors, dose response, SYBR Green, dry powder samples (AID 1159570); assay type: functional, cell-based;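 note: parasite growth measured after 72 hours of compound exposure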
[15] = HepG2 cell cytotoxicity, dose response, cytotoxicity control, plate reader, dry powder samples (AID 1159569); assay type: functional, cell-based;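 note: inhibitor potency with signal falling toward the positive control level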
[16] = P. falciparum Dd2 growth inhibitors, dose response, SYBR Green, cherry-picked samples (AID 1159567); assay type: functional, cell-based
[17] = P. falciparum Dd2 growth inhibitors, dose response, SYBR Green, dry powder samples (AID 1159566); assay type: functional, cell-based;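 note: potency for growth inhibition with lower SYBR green DNA signal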
[18] = Plasmodium falciparum Dd2 Sybr green parasite growth Measured in Cell-Based and Microorganism Combination System Using Plate Reader - 2153-01_Inhibitor_Dose_DryPowder_Activity_Set3.; assay type: functional
[19] = P. falciparum ATP4 D1247Y mutant growth inhibitors, dose response, NITD609-resistant line, SYBR Green, dry powder (AID 1159571); assay type: functional, cell-based;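 note: parasites synchronized at ring stage by sorbitol before testing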
[20] = TB: CFU replicating Measured in Microorganism System Using Imaging - 7108-05_Inhibitor_Dose_DryPowder_Activity_Set2.; assay type: functional
[21] = P. falciparum Dd2 blood-stage growth inhibition, dose response, SYBR Green fluorescence, erythrocytes, dry powder, set 2 (AID 1159574); assay type: functional, cell-based

Chain of Phospholipase D1 (Q13393 whole entry): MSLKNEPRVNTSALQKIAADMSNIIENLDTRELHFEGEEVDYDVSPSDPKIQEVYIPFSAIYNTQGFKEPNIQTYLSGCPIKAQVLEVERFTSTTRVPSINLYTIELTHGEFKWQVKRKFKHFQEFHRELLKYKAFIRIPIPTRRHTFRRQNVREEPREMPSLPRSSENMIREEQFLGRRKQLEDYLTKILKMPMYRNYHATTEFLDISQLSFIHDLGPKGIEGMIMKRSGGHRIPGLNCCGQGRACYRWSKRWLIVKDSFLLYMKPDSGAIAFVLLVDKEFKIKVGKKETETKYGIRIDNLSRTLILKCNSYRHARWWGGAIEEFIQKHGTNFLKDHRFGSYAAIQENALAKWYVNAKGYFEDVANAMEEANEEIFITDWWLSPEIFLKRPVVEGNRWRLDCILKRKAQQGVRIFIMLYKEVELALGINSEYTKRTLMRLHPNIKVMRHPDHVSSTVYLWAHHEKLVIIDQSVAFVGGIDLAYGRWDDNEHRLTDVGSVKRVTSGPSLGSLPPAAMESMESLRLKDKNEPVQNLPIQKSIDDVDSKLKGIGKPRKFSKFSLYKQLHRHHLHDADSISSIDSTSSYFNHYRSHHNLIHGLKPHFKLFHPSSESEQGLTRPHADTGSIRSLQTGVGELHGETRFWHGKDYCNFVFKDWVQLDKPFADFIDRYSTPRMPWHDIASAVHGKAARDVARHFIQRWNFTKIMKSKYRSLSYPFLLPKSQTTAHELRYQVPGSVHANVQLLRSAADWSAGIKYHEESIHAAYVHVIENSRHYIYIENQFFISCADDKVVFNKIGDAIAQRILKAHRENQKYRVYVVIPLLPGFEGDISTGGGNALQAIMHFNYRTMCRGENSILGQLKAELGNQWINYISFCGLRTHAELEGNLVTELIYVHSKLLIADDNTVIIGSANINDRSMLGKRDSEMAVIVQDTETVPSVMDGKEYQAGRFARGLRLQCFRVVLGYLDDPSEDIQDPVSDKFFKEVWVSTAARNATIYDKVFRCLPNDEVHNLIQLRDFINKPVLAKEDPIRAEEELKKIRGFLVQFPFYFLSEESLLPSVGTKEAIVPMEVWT
T1 sequence (O14939 whole entry): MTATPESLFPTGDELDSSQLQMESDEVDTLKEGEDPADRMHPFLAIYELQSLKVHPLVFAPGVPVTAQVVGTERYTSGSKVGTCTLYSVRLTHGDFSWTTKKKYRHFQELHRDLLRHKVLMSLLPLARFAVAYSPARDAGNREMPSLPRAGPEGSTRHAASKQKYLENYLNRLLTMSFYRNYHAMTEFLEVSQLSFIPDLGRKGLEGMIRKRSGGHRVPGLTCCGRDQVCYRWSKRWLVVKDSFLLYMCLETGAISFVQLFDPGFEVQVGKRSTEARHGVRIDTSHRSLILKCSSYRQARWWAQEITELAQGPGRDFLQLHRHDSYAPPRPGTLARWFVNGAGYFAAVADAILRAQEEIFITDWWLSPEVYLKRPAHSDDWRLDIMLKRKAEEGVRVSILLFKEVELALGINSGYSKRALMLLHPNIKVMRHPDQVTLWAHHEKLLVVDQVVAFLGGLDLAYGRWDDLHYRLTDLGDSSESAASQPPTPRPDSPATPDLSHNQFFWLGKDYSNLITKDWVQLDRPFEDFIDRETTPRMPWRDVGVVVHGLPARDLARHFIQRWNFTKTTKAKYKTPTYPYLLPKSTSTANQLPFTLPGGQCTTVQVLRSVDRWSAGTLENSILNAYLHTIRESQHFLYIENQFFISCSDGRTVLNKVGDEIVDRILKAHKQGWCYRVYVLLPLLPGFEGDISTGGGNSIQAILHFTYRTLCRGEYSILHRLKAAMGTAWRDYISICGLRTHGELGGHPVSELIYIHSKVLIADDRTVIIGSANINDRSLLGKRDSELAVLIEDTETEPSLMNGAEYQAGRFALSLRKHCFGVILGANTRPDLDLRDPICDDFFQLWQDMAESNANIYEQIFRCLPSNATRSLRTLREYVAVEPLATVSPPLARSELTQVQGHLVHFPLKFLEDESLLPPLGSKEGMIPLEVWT
Chain of NAD-dependent protein deacylase sirtuin-5, mitochondrial (Q9NXA8 whole entry): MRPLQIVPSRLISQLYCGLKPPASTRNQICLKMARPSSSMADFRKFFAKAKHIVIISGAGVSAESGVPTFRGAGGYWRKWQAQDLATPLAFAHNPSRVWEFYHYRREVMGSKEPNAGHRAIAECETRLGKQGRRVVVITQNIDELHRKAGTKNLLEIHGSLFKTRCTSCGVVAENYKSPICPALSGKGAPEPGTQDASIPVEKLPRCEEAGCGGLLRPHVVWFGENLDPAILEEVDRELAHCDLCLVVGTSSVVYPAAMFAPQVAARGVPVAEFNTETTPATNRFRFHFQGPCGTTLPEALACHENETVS
Chain of Protein Tat (P04608 whole entry): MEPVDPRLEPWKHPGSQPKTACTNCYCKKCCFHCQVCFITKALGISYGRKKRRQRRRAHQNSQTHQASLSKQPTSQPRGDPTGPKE

## CC(C)CC#Cc1ccc2c(c1)O[C@@H](CN(C)S(=O)(=O)c1cccc(F)c1)[C@H](C)CN([C@H](C)CO)S2(=O)=O
[1]
  AC50: 26.3 µM (active)

## O=C(NCCN1CCC2(CC1)C(=O)NCN2Cc1cccnc1)c1ccc2ccccc2c1
Phospholipase D2 [2]
  IC50: 0.46 µM (active)
Phospholipase D2 [3]
  IC50: 8.7 µM (active)
Phospholipase D1
  IC50: 20 µM (active)

## CCCCn1c(N)c(N(CCOC)C(=O)c2cc(-c3ccco3)nc3ccccc23)c(=O)[nH]c1=O
Protein Tat
  IC50: > 100 µM (active)

## O=C(O)CCc1nc2ccccc2[nH]1 [PROCODAZOLE]
[4]
  IC50: > 10 µM (inactive)
[5]
  IC50: > 20 µM (inactive)
[6]
  IC50: > 20 µM (inactive)
[7]
  IC50: > 20 µM (inactive)
[8]
  IC50: > 20 µM (inactive)
[9]
  IC50: > 20 µM (inactive)
[10]
  IC50: > 10 µM (inactive)
[11]
  IC50: > 20 µM (inactive)
[12]
  IC50: 2.42 µM (active)
[13]
  IC50: 2.2 µM (active)

## COc1ccc(CN2C[C@@H](C)[C@H](OC)CN(C)C(=O)c3ccc(NC(=O)c4nc5ccccc5s4)cc3OC[C@H]2C)cc1
[14]
  AC50: 3.16 µM (active)
[15]
  AC50: > 92 µM (inactive)
[16]
  AC50: 0.854 µM (active)
[17]
  AC50: 0.643 µM (active)
[18]
  AC50: 1.06 µM (active)
[19]
  AC50: 1.25 µM (active)

## Cn1c(NC(=O)c2ccccc2)nc2ncccc21
[20]
  AbsAC90: 724.55 µM

## COc1ccc(S(=O)(=O)N(C)C[C@H]2OCc3ccccc3-c3c(n(C)c4ccccc34)C(=O)N([C@@H](C)CO)C[C@@H]2C)cc1
[21]
  AC50: 1.47 µM (active)
